In US6972286B2, “Oxazolidinones having a benzannulated 6- or 7-membered heterocycle” (Pharmacia and Upjohn Company, priority 2000, dated 2005) one finds MIC data, which are given here for 34 compounds.

SMILES strings stand for the structures. Values after ≈ are worked out from the molar mass of the structure shown.

In the assay the test system is Streptococcus pneumoniae. Nature of the assay: Minimum inhibitory concentration (MIC) by agar dilution. The assay is classed as cell-based. Conditions: in vitro, agar dilution (NCCLS 1993), Streptococcus pneumoniae strain SPNE 9912; read-out: Antibacterial Activity Minimum Inhibitory Concentration SPNE 9912. From the text: The oxazolidinone antibacterial agents of this invention have useful activity against a variety of organisms. The in vitro activity of compounds of this invention can be assessed by standard testing procedures such as the determination of minimum inhibitory concentration (MIC) by agar dilution as described in “Approved Standard. Methods for Dilution Antimicrobial Susceptibility Tests for Bacteria That Grow Aerobically”, 3rd. ed., published 1993 by the National Committee for Clinical Laboratory Standards, Villanova, Pa. USA.
On the technique in general: In agar dilution the substance is mixed into plates at graded concentrations.
Turning to `CC(=S)NC[C@H]1CN(c2ccc3c(c2)CCCCN3C=O)C(=O)O1` [Example 21, N-{[(5S)-3-(1-Formyl-2,3,4,5-tetrahydro-1H-1-benzazepin-7-yl)-2-oxo-1,3-oxazolidin-5-yl]methyl}ethanethioamide], the MIC is below 0.5 µg/mL.
For `CC(=O)CCC(=O)N1CCc2ccc(N3C[C@H](CNC(C)=O)OC3=O)cc2CC1` [Example 34] the value was 2 µg/mL (≈ 4.98 µM); for `CC(=O)NC[C@H]1CN(c2ccc3c(c2)CCCN(C(=O)Nc2ccccc2)C3)C(=O)O1` [Example 40, 7-{(5S)-5-[(Acetylamino)methyl]-2-oxo-1,3-oxazolidin-3-yl}-N-phenyl-1,3,4,5-tetrahydro-2H-2-benzazepine-2-carboxamide], 1 µg/mL (≈ 2.37 µM).
The value for `CC(=S)NC[C@H]1CN(c2ccc3c(c2)CN(C=O)CC3)C(=O)O1` [Example 18, (+)-N-[[(5S)-3-[2-Formyl-1,2,3,4-tetrahydro-7-isoquinolinyl]-2-oxo-5-oxazolidinyl]methyl]ethanethioamide] was 1 µg/mL (≈ 3 µM).
For `CC(=O)NC[C@H]1CN(c2ccc3c(c2)CCSCC3)C(=O)O1` [Example 47, N-[[(5S)-2-Oxo-3-(1,2,4,5-tetrahydro-3-benzothiepin-7-yl)-5-oxazolidinyl]methyl]acetamide] the value was 2 µg/mL (≈ 6.24 µM).
With `CC(=O)NC[C@H]1CN(c2ccc3c(c2)CCN(C(=O)Cc2cccc(C(F)(F)F)c2)CC3)C(=O)O1` [Example 32], the MIC was 2 µg/mL (≈ 4.09 µM).
The value for `CC(=S)NC[C@H]1CN(c2ccc3c(c2)CSCC3)C(=O)O1` [Example 15, (+)-N-[[(5S)-3-(3,4-Dihydro-1H-2-benzothiopyran-7-yl)-2-oxo-5-oxazolidinyl]methyl]ethanethioamide] was 0.125 µg/mL (≈ 0.388 µM).
Turning to `CC(=O)CCCC(=O)N1CCc2ccc(N3C[C@H](CNC(C)=O)OC3=O)cc2CC1` [Example 35, N-({(5S)-2-Oxo-3-[3-(5-oxohexanoyl)-1,2,4,5-tetrahydro-1H-3-benzazepin-7-yl]-1,3-oxazolidin-5-yl}methyl)acetamide], the MIC is 1 µg/mL (≈ 2.41 µM).
The value for `CC(=O)NC[C@H]1CN(c2ccc3c(c2)CCN(C=O)C3)C(=O)O1` [Example 2, (−)-N-[[(5S)-3-[2-Formyl-1,2,3,4-tetrahydro-6-isoquinolinyl]-2-oxo-5-oxazolidinyl]methyl]acetamide] was 1 µg/mL (≈ 3.15 µM); that for `CC(=O)NC[C@H]1CN(c2ccc3c(c2)CCN(c2nnc(NC(=O)CO)s2)CC3)C(=O)O1` [Example 46, N-[5-(7-{(5S)-5-[(Acetylamino)methyl]-2-oxo-1,3-oxazolidin-3-yl}-1,2,4,5-tetrahydro-3H-3-benzazepin-3-yl)-1,3,4-thiadiazol-2-yl]-2-hydroxyacetamide] was 0.5 µg/mL (≈ 1.09 µM); that for `CC(=O)NC[C@H]1CN(c2ccc3c(c2)CCN(C(=O)c2ccccc2)CC3)C(=O)O1` [Example 27, N-{[(5S)-3-(3-Benzoyl-1,2,4,5-tetrahydro-1H-3-benzazepin-7-yl)-2-oxo-1,3-oxazolidin-5-yl]methyl}acetamide] was 1 µg/mL (≈ 2.45 µM).
Consider `CC(=O)NC[C@H]1CN(c2ccc3c(c2)CCCN(C=O)C3)C(=O)O1` [Example 36, N-{[(5S)-3-(2-Formyl-1,3,4,5-tetrahydro-1H-2-benzazepin-7-yl)-2-oxo-1,3-oxazolidin-5-yl]methyl}acetamide], for which the MIC is below 0.5 µg/mL.
The value for `CSc1nnc(N2CCc3ccc(N4C[C@H](CNC(C)=O)OC4=O)cc3CC2)s1` [Example 43, N-({(5S)-3-[3-(5-Methylthio-1,3,4-thiadiazol-2-yl)-1,2,4,5-tetrahydro-1H-3-benzazepin-7-yl]-2-oxo-1,3-oxazolidin-5-yl}methyl)acetamide] was 0.5 µg/mL (≈ 1.15 µM); that for `CC(=O)NC[C@H]1CN(c2ccc3c(c2)C[S+]([O-])CC3)C(=O)O1` (stereo partly drawn) [Example 17, N-[[(5S)-3-(3,4-Dihydro-2-oxido-1H-2-benzothiopyran-7-yl)-2-oxo-5-oxazolidinyl]methyl]acetamide] was 2 µg/mL (≈ 6.2 µM); that for `CC(=O)NC[C@H]1CN(c2ccc3c(c2)CSCC3)C(=O)O1` [Example 14, (−)-N-[[(5S)-3-(3,4-Dihydro-1H-2-benzothiopyran-7-yl)-2-oxo-5-oxazolidinyl]methyl]acetamide] was 0.5 µg/mL (≈ 1.63 µM).
With `CC(=O)NC[C@H]1CN(c2ccc3c(c2)CCN(c2nnc(NC=O)s2)CC3)C(=O)O1` [Example 45, N-[((5S)-3-{3-[5-(Formylamino)-1,3,4-thiadiazol-2-yl]-1,2,4,5-tetrahydro-1H-3-benzazepin-7-yl}-2-oxo-1,3-oxazolidin-5-yl)methyl]acetamide], the MIC stood at 0.5 µg/mL (≈ 1.16 µM).
The value for `CC(=O)NC[C@H]1CN(c2ccc3c(c2)CCN(c2nnc(N)s2)CC3)C(=O)O1` [Example 42, N-({(5S)-3-[3-(5-Amino-1,3,4-thiadiazol-2-yl)-1,2,4,5-tetrahydro-1H-3-benzazepin-7-yl]-2-oxo-1,3-oxazolidin-5-yl}methyl)acetamide] was 0.5 µg/mL (≈ 1.24 µM); that for `CC(=O)NC[C@H]1CN(c2ccc3c(c2)CCN(C(C)=O)CC3)C(=O)O1` [Example 25, N-{[(5S)-3-(3-Acetyl-1,2,4,5-tetrahydro-1H-3-benzazepin-7-yl)-2-oxo-1,3-oxazolidin-5-yl]methyl}acetamide] was 1 µg/mL (≈ 2.9 µM).
The value for `CC(=O)NC[C@H]1CN(c2ccc3c(c2)CCN(C(=O)OCc2ccccc2)CC3)C(=O)O1` [Example 22] was below 0.5 µg/mL; that for `CC(=O)NC[C@H]1CN(c2ccc3c(c2)CCN(C(=O)COC(C)=O)C3)C(=O)O1` [Example 3, (−)-N-[[(5S)-3-[2-[(Acetyloxy)acetyl]-1,2,3,4-tetrahydro-6-isoquinolinyl]-2-oxo-5-oxazolidinyl]methyl]acetamide] was 1 µg/mL (≈ 2.57 µM); that for `COC(=O)N1CCc2cc(N3C[C@H](CNC(C)=S)OC3=O)ccc2C1` [Example 5, (+)-Methyl 6-[(5S)-5-[(ethanethioylamino)methyl]-2-oxo-3-oxazolidinyl]-3,4-dihydro-2(1H)-isoquinolinecarboxylate] was below 0.5 µg/mL.
As to `CC(=O)NC[C@H]1CN(c2ccc3c(c2)CCN(c2nnc(C)s2)CC3)C(=O)O1` [Example 44, N-({(5S)-3-[3-(5-Methyl-1,3,4-thiadiazol-2-yl)-1,2,4,5-tetrahydro-1H-3-benzazepin-7-yl]-2-oxo-1,3-oxazolidin-5-yl}methyl)acetamide], the MIC is 1 µg/mL (≈ 2.49 µM).
For `CC(=O)NC[C@H]1CN(c2ccc3c(c2)CCN(C(=O)CO)C3)C(=O)O1` [Example 4, (−)-N-[[(5S)-3-[2-[(Hydroxy)acetyl]-1,2,3,4-tetrahydro-6-isoquinolinyl]-2-oxo-5-oxazolidinyl]methyl]acetamide] the value was 1 µg/mL (≈ 2.88 µM); for `CC(=O)NC[C@H]1CN(c2ccc3c(c2)CCN(C=O)CC3)C(=O)O1` [Example 23, N-{[(5S)-3-(3-Formyl-1,2,4,5-tetrahydro-1H-3-benzazepin-7-yl)-2-oxo-1,3-oxazolidin-5-yl]methyl}acetamide], below 0.5 µg/mL.
For the compound `CC(=O)NC[C@H]1CN(c2ccc3c(c2)CCN(C(=O)Cc2ccc(I)cc2)CC3)C(=O)O1` [Example 31, N-[((5S)-3-{3-[(4-Iodophenyl)acetyl]-1,2,4,5-tetrahydro-1H-3-benzazepin-7-yl}-2-oxo-1,3-oxazolidin-5-yl)methyl]acetamide], the MIC was found to be 1 µg/mL (≈ 1.83 µM).
As for `CC(=S)NC[C@H]1CN(c2ccc3c(c2)CN(C(=O)CO)CC3)C(=O)O1` [Example 19, (+)-N-[[(5S)-3-[2-[(Hydroxy)acetyl]-1,2,3,4-tetrahydro-7-isoquinolinyl]-2-oxo-5-oxazolidinyl]methyl]ethanethioamide], the MIC was determined as 2 µg/mL (≈ 5.5 µM).
As for `CC(=O)NC[C@H]1CN(c2ccc3c(c2)CCN(C(=O)Oc2ccccc2)CC3)C(=O)O1` [Example 29, Phenyl 7-{(5S)-5-[(acetylamino)methyl]-2-oxo-1,3-oxazolidin-3-yl}-1,2,4,5-tetrahydro-3H-3-benzazepine-3-carboxylate], the MIC is 2 µg/mL (≈ 4.72 µM).
The value for `CC(=S)NC[C@H]1CN(c2ccc3c(c2)CS(=O)(=O)CC3)C(=O)O1` [Example 16, (+)-N-[[(5S)-3-(3,4-Dihydro-2,2-dioxido-1H-2-benzothiopyran-7-yl)-2-oxo-5-oxazolidinyl]methyl]ethanethioamide] was 1 µg/mL (≈ 2.82 µM); that for `CC(=O)NC[C@H]1CN(c2ccc3c(c2)CCN(C(=O)Cc2ccccc2)CC3)C(=O)O1` [Example 30, N-[((5S)-3-{3-(Phenyl)acetyl-1,2,4,5-tetrahydro-1H-3-benzazepin-7-yl}-2-oxo-1,3-oxazolidin-5-yl)methyl]acetamide] was 1 µg/mL (≈ 2.37 µM); that for `CC(=O)NC[C@H]1CN(c2ccc3c(c2)CCS(=O)(=O)CC3)C(=O)O1` [Example 48, N-[[(5S)-2-Oxo-3-(1,2,4,5-tetrahydro-3,3-dioxido-3-benzothiepin-7-yl)-5-oxazolidinyl]methyl]acetamide] was 8 µg/mL (≈ 22.7 µM).
For `CC(=S)NC[C@H]1CN(c2ccc3c(c2)CCN(C(=O)CO)CC3)C(=O)O1` [Example 41, N-{[(5S)-3-(3-Glycoloyl-1,2,4,5-tetrahydro-1H-3-benzazepin-7-yl)-2-oxo-1,3-oxazolidin-5-yl]methyl}ethanethioamide] the value was 0.125 µg/mL (≈ 0.331 µM); for `CC(=O)NC[C@H]1CN(c2ccc3c(c2)CCN(S(C)(=O)=O)CC3)C(=O)O1` [Example 28, N-({(5)-3-[3-(Methylsulfonyl)-1,2,4,5-tetrahydro-1H-3-benzazepin-7-yl]-2-oxo-1,3-oxazolidin-5-yl}methyl)acetamide], 4 µg/mL (≈ 10.5 µM); for `COC(=O)N1CCc2ccc(N3C[C@H](CNC(C)=O)OC3=O)cc2CC1` [Example 26, Methyl 7-{(5S)-5-[(acetylamino)methyl]-2-oxo-1,3-oxazolidin-3-yl}-1,2,4,5-tetrahydro-3H-3-benzazepine-3-carboxylate], 1 µg/mL (≈ 2.77 µM).
For the compound `CC(=O)NC[C@H]1CN(c2ccc3c(c2)CCN(C(=O)CO)CC3)C(=O)O1` [Example 24, N-{[(55)-3-(3-Glycoloyl-1,2,4,5-tetrahydro-1H-3-benzazepin-7-yl)-2-oxo-1,3-oxazolidin-5-yl]methyl}acetamide], the MIC was below 0.5 µg/mL.
